Test results from US20040071718A1, “Local nasal immunotherapy for allergen-induced airway inflammation” (priority 2002, published 2004).
Marks after values point to notes of the source that are not given here.

Tests used:
Format in all cases: in vivo
[1] = tested on: Balb/c mice; assay: Leukocyte subpopulations in BALF of rDp2-sensitized mice after local nasal immunotherapy (LNIT); conditions: for Eosinophil / Lymphocyte / Macrophage / Neutrophil / Total cell: BALF; for anti-inflammatory effect on airway inflammation: Example 1, BALF inflammatory cells compared to the NS groups
Protocol: (§1) Male Balb/c mice were obtained from the National Laboratory Breeding Research Center in Taiwan and were raised in a specific pathogen-free environment. The mice used were between six and eight weeks of age. Groups of six mice were caged separately according to their treatment. Recombinant Dermatophoides pteronyssinus group 2 (rDp2) was prepared as previously described(Tsai J J, et al. Int Arch Allergy Immunol 2000;121:205-10). Dp2 28-40 and Dp2 28-40A were obtained from Dr. Jonathan Lamb (Respiratory Medicine Unit, Edinburgh University, Medical School, Edinburgh, UK) (Verhoef A, and Lamb J R. J Immunol 2000;164:6034-6040). FIP was obtained from Dr. Ko Jiunn-Liang (Institute of Toxicology, Chung Shan Medical University, Taichung, R O C) (J L Ko, et al. Eur. J. Biochem. 1995;228:244-249).
(§2) Mice were immunized by way of an intraperitoneal (IP) injection of 1 μg/0.1 mL rDp2 emulsified in 4.0 mg/0.062mL aluminum hydroxide Al(OH)3 (Whitehall Lab Ltd. Punchbowl, NSW, Australia) on day 0 and day 7. Following immunization, local nasal immunotherapy (LNIT) was conducted daily from day 14 to day 35 with Dp2 28-40, Dp2 28-40A, FIP alone or FIP mixed with either Dp2 28-40 or Dp2 28-40A (FIP, 50 μg/mouse/day; Dp2 peptide, 1 μg/20 μL) in PBS with 10% glycerol. Normal saline (NS) and irrelevant allergen Bt were used as a negative control. […] On day 28, mice were lightly anesthetized with an IP injection of 60 mg/kg of sodium pentobarbital (Sigma Chemical Co., St Louis, Mo., U.S.A.) and inoculated intratracheally (IT) with 1 μg/50 μL of rDp 2 on day 28 and day 35. Two days subsequent to the second IT inoculation, the mice were sacrificed following the assessment of their pulmonary function (FIG. 1).
Subsequent to pulmonary function measurement having been completed, bronchoalveolar lavage (BAL) was performed using the following procedure. BAL fluids were collected with lmL sterile endotoxin-free saline washes of each lung via the trachea for each mouse. BAL cells were washed once with PBS by centrifugation at 200×g at 4° C. Subsequent to washing, the cells were resuspended in RPMI-1640 (Sigma Chemical Co.). The total leukocyte count in BAL fluids was determined using a hemocytometer. The BAL fluids were aspirated and stored at −70° C. until needed for assay purposes. Subsequent to total leukocyte counting, a cytospin preparation of 100 μL BAL fluids (2×10^5 cells/mL) was conducted, the cells being cytocentrifuged directly onto glass slides at 350 r.p.m. for five minutes using a Cytospin 3 cytocentrifuge (Shandon Scientific Limited, Astmoor, Runcorn, UK), and then stained with Liu stain (Tonyar Diagnostic Inc, Taipei & Hien, Taiwan). The differential counts were performed for a total of 200 leukocyte cells.

[2] = tested on: Balb/c mice; assay: Cytokine producing cells in peripheral blood (flow cytometry) after LNIT; conditions: for IL-5/IFN-γ (CD4) / IL-5/IFN-γ (CD8): peripheral blood
Protocol: Male Balb/c mice were obtained from the National Laboratory Breeding Research Center in Taiwan and were raised in a specific pathogen-free environment. The mice used were between six and eight weeks of age. Groups of six mice were caged separately according to their treatment.
as §2
Two-color staining methods were used to analyze IFN-γ and IL-5 expression amongst CD4 cells. Leukocytes derived from peripheral blood (PBL) were stimulated with PMA (50 ng/mL), ionomycin (2 μM) and GolgiStop (Cytofix/Cytoperm Plus Pharmingen San Diego, Calif., U.S.A.) for five hours and then washed twice using PBS. The cells were stained with CD4-PerCP, CD8-FITC or IgG1-FITC (PharMingen) at room temperature (RT) for 30 minutes and then washed. Cells were fixed with cytofix/cytoperm at RT for 30 minutes and then stained with anti-cytokine antibody and IgG2a-PE (PharMingen) at RT for 30 minutes and subsequently washed. Both IgG1-FITC and IgG2a-PE were purchased from the same manufacturer as the anticytokine antibodies and the negative controls. Cells were resuspended in 0.5 mL PBS containing 0.1% w/v sodium azide. Mean fluorescence was measured by means of Becton Diskinson flow cytometry (Becton Diskinson, Calif., U.S.A.). A total of 2,000 cells was analyzed for each sample.

[3] = tested on: Balb/c mice; assay: Dp2 specific IgG1, IgG2a and IgE in sera (ELISA) after LNIT; conditions: for Dp2 specific IgG1 production in the sera: Example 1, FIG. 2A; for Dp2 specific IgG1 production in the sera / Dp2 specific IgG2a production in the sera / Dp2 specific IgE production in the sera: compared with NS group; for Dp2 specific IgG2a production in the sera: Example 1, FIG. 2B; for Dp2 specific IgE production in the sera: Example 1, FIG. 2C
Protocol: as §1, §2
Blood was obtained from the retro-orbital venous plexus at the commencement and end of the experimental program. Serum IgE, IgG1 and IgG2a titers of anti-Dp2 antibodies were determined using an enzyme-linked immunosorbent assay (ELISA) technique. Microtiter plates (Nunc Lab, Ill., U.S.A.) were coated with 100 μL Dp2 overnight at a concentration of 0.5 μg/mL and left in a 4° C. refrigerator. Microtiter-plate nonspecific binding sites were blocked with 3% BSA in PBS for two hours at room temperature. Plates were washed with PBS-Tween-20 (PBST) three times and stored at −70° C. prior to subsequent use. Subsequent to the addition of a 1:5 dilution for IgE, a 1:100 dilution for IgG1 and a 1:5 dilution for IgG2a of mice serum, plates were incubated at 4° C. overnight, and then washed three times before the antibody (Horse radish peroxidase-conjugated goat anti-mouse IgE and IgG2a Ab 1:800, IgG1 Ab 1:2,000 Southern Biotech Assoc, Inc, Birmingham, Ala., U.S.A.) was added. Following a one-hour incubation at 37° C. and three washes with PBST, the enzyme substrate (2,2″-Azino-bis(3-ethylbenzothiazolin-6-sulfonic acid diammonium salt; Bio-Rad, USA) was added. The reaction was stopped using 50 μL 4N H2SO4 after the reaction had been allowed to continue for 15 minutes, following which the optical density was measured at 450nm using a multiscan spectrophotometer (model A-5682, SLT Lab Instruments, Salzburg, Austria). Results were expressed as ELISA units (EU), one EU being defined as the reciprocal value of the serum dilution that elicited an optical density of 1.0. Such a value was selected so as to always lie within the linear component of the dilution curve. To assure reproducibility, a known serum was included with each test as a standard.

[4] = Example 1, LNIT day 14-35, rDp2 IT challenge, mean ± SEM of six animals
[5] = Example 1, percentage of positive stained cells in the PBMC of six mice
[6] = Example 1, ratio of IL-5 to IFN-γ producing CD4 cells
[7] = Example 1, ratio of IL-5 to IFN-γ producing CD8 cells
[8] = Example 2 (FIP study), mean ± SEN of six mice
[9] = Example 2, percentage of total leukocytes in the peripheral blood of six mice

Row | Molecule | Eosinophil [1, 4] | Lymphocyte [1, 4] | Macrophage [1, 4] | Neutrophil [1, 4] | Total cell [1, 4] | anti-inflammatory effect on airway inflammation [1] | CD4^+ [2, 5] [percentage] | CD8^+ [2, 5] [percentage] | IFN-γ^+/CD4^+ [2, 5] [percentage] | IFN-γ^+/CD8^+ [2, 5] [percentage] | IL-5^+/CD4^+ [2, 5] [percentage] | IL-5^+/CD8^+ [2, 5] [percentage] | IL-5/IFN-γ (CD4) [2, 6] | IL-5/IFN-γ (CD8) [2, 7] | Dp2 specific IgG1 production in the sera [3] | Dp2 specific IgG2a production in the sera [3] | Dp2 specific IgE production in the sera [3] | further results
1 | Dp2 28-40: Dermatophoides pteronyssinus group 2 (Dp2) epitope peptide, residues 28-40, amino acid sequence ID No. 1 (IIHRGKPFQLEAV; listed as Dermatophoides pteronyssinus) | 3.5 ± 0.5* 10^4 cells/mL | 11.8 ± 0.8* 10^4 cells/mL | 31.0 ± 2.5* 10^4 cells/mL | 7.2 ± 1.5* 10^4 cells/mL | 53.3 ± 4.1* 10^4 cells/mL | best anti-inflammatory effect | 56.0 | 9.8 | 27.8 | 16.8 | 17.7 | 9.5 | 0.6 | 0.6 | significantly reduced | increased | reduction of IgE | –
2 | Dp2 28-40A: altered TCR ligand of Dp2 28-40, residues at positions 34 and 36 substituted by alanine; amino acid sequence ID No. 2 (IIHRGKAFALEAV; listed as Dermatophoides pteronyssinus) | 3.0 ± 1.0* 10^4 cells/mL | 14.6 ± 3.3* 10^4 cells/mL | 38.4 ± 7.2* 10^4 cells/mL | 8.2 ± 1.1* 10^4 cells/mL | 65.0 ± 3.2* 10^4 cells/mL | weaker than Dp2 28-40 | 51.8 | 10.7 | 11.4 | 5.8 | 11.4 | 3.5 | 1.0 | 0.6 | significantly reduced | increased | reduction of IgE was observed only in the group of Dp2 28-40 | –
3 | FIP: fungal immunomodulatory protein isolated from Flammalina velutipes, amino acid sequence ID No. 3 (protein, Flammalina velutipes) SATSLTFQLAVLVKKIDFDYTPNWGRGTPSSYIDNLTFPKVLTDKKYSYRVVVNGSDLGVESNFAVTPSGGQTINFLQYNKGYGVADTKTIQVFVVIPDTGNSEEYIIAEWKKT | – | – | – | – | – | – | – | – | – | – | – | – | – | – | – | – | – | Eosinophil [1, 8]: 6.3 ± 1.3 ×10^4/mL; Lymphocyte [1, 8]: 13.0 ± 1.8 ×10^4/mL; Macrophage [1, 8]: 37.0 ± 7.4 ×10^4/mL; Neutrophil [1, 8]: 9.0 ± 2.4 ×10^4/mL; Total cell [1, 8]: 65.0 ± 10.5 ×10^4/mL; airway-inflammation level (cellular component in BALF) ([1]; Example 2, text summary of Table 3): diminish the airway-inflammation level; CD4 [2, 9]: 29.1 percentage; CD8 [2, 9]: 7.0 percentage; IFN-γ^+/CD4^+ [2, 9]: 13.7 percentage; IFN-γ^+/CD8^+ [2, 9]: 5.0 percentage; IL-5^+/CD4^+ [2, 9]: 12.6 percentage; IL-5^+/CD8^+ [2, 9]: 8.4 percentage; IL-5/IFN-γ (CD4) ([2]; Example 2, ratio, CD4 cells): 0.9; IL-5/IFN-γ (CD8) ([2]; Example 2, ratio, CD8 cells): 1.7; Dp2 specific IgG1 production in sera ([3]; Example 2, FIG. 7A, compared with NS): significantly reduced; Dp2 specific IgG2a production in sera ([3]; Example 2, FIG. 7B, compared with NS): significantly increased; Dp2 specific IgE production in sera ([3]; Example 2, FIG. 7C, compared with NS): significantly reduced
